According to patent US9440978B2, “Imidazolo-, oxazolo-, and thiazolopyrimidine modulators of TRPV1” (Janssen Pharmaceutica NV, priority 2007, dated 2016):
Structures can show the parent of a compound that is named as a salt.

What was measured:
rat TRPV1 = target: T1, rat TRPV1 (Rattus norvegicus, UniProt O35433); experiment: Block of capsaicin-induced Ca2+ influx, rat assay (rTRPV1/HEK293, FLIPR); format: cell-based; conditions: HEK293 cells transfected with rat TRPV1; capsaicin challenge; mean; > value = solubility limit in assay medium; read-out: Rat IC50
T1 construct: expressed in transfected cells; host or cells: HEK293
Description: (§1) HEK293 cells were transfected with human TRPV1 cloned in pcDNA3.1zeo(+) using the Effectene non-liposomal lipid based transfection kit (Qiagen) (hTRPV1/HEK293). hTRPV1/HEK293 cells were routinely grown as monolayers under selection in zeocin (200 μg/mL; Invitrogen) in Dulbecco's Modified Eagle Medium (DMEM, Gibco BRL) supplemented with 10% fetal bovine serum, and penicillin/streptomycin (50 units/mL) in 5% CO2 at 37° C. Cells were passaged frequently, every 3-5 days, to avoid overgrowth, depletion of essential medium components, or acidic medium exposure. Cells were passaged using a brief wash in 0.05% trypsin with 1 mM EDTA, followed by dissociation in divalent-free phosphate-buffered saline (Hyclone #SH30028.02). […] The assay buffer was composed of 130 mM NaCl, 2 mM KCl, 2 mM MgCl2, 10 mM HEPES, 5 mM glucose, and either 2 mM or 20 μM CaCl2. On the day of the experiment, the culture medium was replaced with 2 mM calcium assay buffer using an automated plate washer (ELx405; Biotek, VT). […] After loading the cells, the dye solution was replaced with 50 μL/well of 20 μM calcium assay buffer using the ELx405 plate washer. Test compounds (50 μL/well) were added to the plate and incubated for 30 min. Intracellular Ca^2+ levels were subsequently assayed using a Fluorometric Imaging Plate Reader (FLIPR™ instrument, Molecular Devices, CA) to simultaneously monitor Fluo-3 fluorescence in all wells (λexcitation=488 nm, λemission=540 nm) during challenge with agonist (capsaicin). The IC50 values were determined. […] The contents of the wells were mixed 3 times (40 μL mix volume) immediately after the additions were made. Concentration-dependence of block was determined by exposing each well of cells in duplicate rows of a 96-well plate to a serial dilution of test compound. The concentration series usually started at 10 μM with a three-fold serial decrement in concentration. The magnitude of the capsaicin response was determined by measuring the change in fluo3 fluorescence before and 100 seconds after the addition of the agonist. Data were analyzed using a non-linear regression program (Origin; OriginLab, MA).
This assay was performed similarly to the human assay described above, but using HEK293 cells transfected with rat TRPV1 (rTRPV1/HEK293).
(§2) IC50 values shown are the average (mean) of the results obtained. […] Compounds were tested as in the free base, trifluoroacetic acid salt, or hydrochloride salt form.

human TRPV1 = target: T2, human TRPV1 (Homo sapiens, UniProt Q8NER1); experiment: Block of capsaicin-induced Ca2+ influx, human assay (hTRPV1/HEK293, FLIPR); format: cell-based; conditions: HEK293 cells transfected with human TRPV1; 150 nM capsaicin challenge; mean; > value = solubility limit in assay medium
T2 construct: expressed in transfected cells; host or cells: HEK293
Description: as §1, §2

T1 sequence (O35433 whole entry): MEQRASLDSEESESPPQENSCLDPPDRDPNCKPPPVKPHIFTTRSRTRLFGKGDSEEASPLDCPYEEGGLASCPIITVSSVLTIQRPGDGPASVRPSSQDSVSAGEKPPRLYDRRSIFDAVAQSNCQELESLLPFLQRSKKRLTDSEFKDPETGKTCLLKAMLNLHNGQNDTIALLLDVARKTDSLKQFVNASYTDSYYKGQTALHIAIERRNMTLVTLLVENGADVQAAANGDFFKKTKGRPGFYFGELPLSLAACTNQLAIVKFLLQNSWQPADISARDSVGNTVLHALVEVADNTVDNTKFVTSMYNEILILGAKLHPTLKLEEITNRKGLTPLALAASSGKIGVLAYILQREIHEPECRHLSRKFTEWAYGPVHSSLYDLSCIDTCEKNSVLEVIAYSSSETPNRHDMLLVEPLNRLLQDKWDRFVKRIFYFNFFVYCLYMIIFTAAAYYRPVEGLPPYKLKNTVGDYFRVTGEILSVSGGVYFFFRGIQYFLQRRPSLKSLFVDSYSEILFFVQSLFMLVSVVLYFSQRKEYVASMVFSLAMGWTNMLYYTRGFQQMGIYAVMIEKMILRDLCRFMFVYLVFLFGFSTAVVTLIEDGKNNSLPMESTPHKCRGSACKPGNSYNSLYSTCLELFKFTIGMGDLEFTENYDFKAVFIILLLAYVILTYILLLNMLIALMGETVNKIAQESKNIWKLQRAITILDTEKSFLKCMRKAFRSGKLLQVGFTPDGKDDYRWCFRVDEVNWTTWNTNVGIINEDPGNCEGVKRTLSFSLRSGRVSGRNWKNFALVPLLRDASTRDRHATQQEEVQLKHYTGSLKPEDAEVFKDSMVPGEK
T2 sequence (Q8NER1 whole entry): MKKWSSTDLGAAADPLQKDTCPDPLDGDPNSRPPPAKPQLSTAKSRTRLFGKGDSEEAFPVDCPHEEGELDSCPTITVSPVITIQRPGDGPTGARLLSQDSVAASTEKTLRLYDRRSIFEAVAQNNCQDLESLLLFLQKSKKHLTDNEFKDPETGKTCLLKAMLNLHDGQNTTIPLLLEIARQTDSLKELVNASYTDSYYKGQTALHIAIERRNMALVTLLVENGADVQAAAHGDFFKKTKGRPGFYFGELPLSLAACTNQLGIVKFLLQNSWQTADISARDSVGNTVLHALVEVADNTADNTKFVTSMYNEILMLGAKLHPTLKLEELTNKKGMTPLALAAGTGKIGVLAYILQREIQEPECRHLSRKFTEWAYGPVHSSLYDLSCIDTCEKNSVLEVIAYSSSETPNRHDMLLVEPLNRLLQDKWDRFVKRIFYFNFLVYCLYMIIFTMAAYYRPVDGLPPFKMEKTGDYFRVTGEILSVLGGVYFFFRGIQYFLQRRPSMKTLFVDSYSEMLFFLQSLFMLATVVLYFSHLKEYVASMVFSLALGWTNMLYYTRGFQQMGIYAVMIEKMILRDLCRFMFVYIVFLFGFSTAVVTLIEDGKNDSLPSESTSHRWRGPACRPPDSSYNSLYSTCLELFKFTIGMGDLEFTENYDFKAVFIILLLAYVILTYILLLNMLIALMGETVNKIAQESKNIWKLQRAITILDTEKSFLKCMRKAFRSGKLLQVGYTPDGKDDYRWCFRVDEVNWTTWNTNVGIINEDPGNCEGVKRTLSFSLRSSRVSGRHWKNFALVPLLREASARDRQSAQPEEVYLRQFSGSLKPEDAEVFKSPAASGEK

| SMILES | IC50 (rat TRPV1) [µM] | IC50 (human TRPV1) [µM] |
| --- | --- | --- |
| FC(F)(F)c1ccc(Nc2ncnc3oc(Cc4c(Cl)cccc4Cl)nc23)cc1 [Example 1, [2-(2,6-Dichloro-benzyl)-oxazolo[5,4-d]pyrimidin-7-yl]-(4-trifluoromethyl-phenyl)-amine] | 0.058 | 0.136 |
| CC(C)(C)c1ccc(Nc2ncnc3oc(Cc4c(Cl)cccc4Cl)nc23)cc1 [Example 2, (4-tert-Butyl-phenyl)-[2-(2,6-dichloro-benzyl)-oxazolo[5,4-d]pyrimidin-7-yl]-amine] | 0.03 | 0.075 |
| FC(F)(F)c1ccc(Nc2ncnc3sc(Cc4c(Cl)cccc4Cl)nc23)cc1 [Example 3, [2-(2,6-Dichloro-benzyl)-thiazolo[5,4-d]pyrimidin-7-yl]-(4-trifluoromethyl-phenyl)-amine] | 0.03 | 0.048 |
| FC(F)(F)c1ccc(Nc2ncnc3sc(Cc4ccccc4I)nc23)cc1 [Example 4, [2-(2-Iodo-benzyl)-thiazolo[5,4-d]pyrimidin-7-yl]-(4-trifluoromethyl-phenyl)-amine] | 0.008 | 0.022 |
| CSc1nc(Nc2ccc(C(F)(F)F)cc2)c2nc(Cc3c(Cl)cccc3Cl)sc2n1 [Example 5, [2-(2,6-Dichloro-benzyl)-5-methylsulfanyl-thiazolo[5,4-d]pyrimidin-7-yl]-(4-trifluoromethyl-phenyl)-amine] | > 6.67 | – |
| Cc1nc(Nc2ccc(C(F)(F)F)cc2)c2nc(Cc3c(Cl)cccc3Cl)sc2n1 [Example 6, [2-(2,6-Dichloro-benzyl)-5-methyl-thiazolo[5,4-d]pyrimidin-7-yl]-(4-trifluoromethyl-phenyl)-amine] | 0.015 | 0.023 |
| FC(F)(F)c1ccc(Nc2ncnc3sc(Cc4c(Cl)cccc4Cl)nc23)cn1 [Example 8, [2-(2,6-Dichloro-benzyl)-thiazolo[5,4-d]pyrimidin-7-yl]-(6-trifluoromethyl-pyridin-3-yl)-amine] | 0.055 | 0.03 |
| FC(F)(F)c1ccc(Nc2ncnc3sc(Cc4c(Cl)cccc4Cl)nc23)cc1Cl [Example 9, (3-Chloro-4-trifluoromethyl-phenyl)-[2-(2,6-dichloro-benzyl)-thiazolo[5,4-d]pyrimidin-7-yl]-amine] | 0.074 | 0.04 |
| CS(=O)(=O)c1ccc(Nc2ncnc3sc(Cc4c(Cl)cccc4Cl)nc23)cc1 [Example 13, [2-(2,6-Dichloro-benzyl)-thiazolo[5,4-d]pyrimidin-7-yl]-(4-methanesulfonyl-phenyl)-amine] | 0.057 | 0.19 |
| O=S(=O)(c1ccc(Nc2ncnc3sc(Cc4c(Cl)cccc4Cl)nc23)cc1)C(F)(F)F [Example 14] | 0.068 | 0.034 |
| O=S(=O)(c1ccc(Nc2ncnc3sc(Cc4c(Cl)cccc4Cl)nc23)cc1)N1CCOCC1 [Example 15, [2-(2,6-Dichloro-benzyl)-thiazolo[5,4-d]pyrimidin-7-yl]-[4-(morpholine-4-sulfonyl)-phenyl]-amine] | 0.054 | 0.033 |
| COC(=O)C(C)(C)c1ccc(Nc2ncnc3sc(Cc4c(Cl)cccc4Cl)nc23)cc1 [Example 26, Methyl 2-(4-{[2-(2,6-dichlorobenzyl)[1,3]thiazolo[5,4-d]pyrimidin-7-yl]amino}phenyl)-2-methylpropanoate] | 0.074 | – |
| FC(F)(F)c1ccc(Nc2ncnc3sc(Cc4ccc(Cl)cc4Cl)nc23)cc1 [Example 27, 2-(2,4-Dichlorobenzyl)-N-[4-(trifluoromethyl)phenyl][1,3]thiazolo[5,4-d]pyrimidin-7-amine] | 0.043 | – |
| O=S(=O)(c1ccc(Nc2ncnc3sc(Cc4c(Cl)cccc4Cl)nc23)cc1)N1CCNCC1 [Example 28, 2-(2,6-Dichlorobenzyl)-N-[4-(piperazin-1-ylsulfonyl)phenyl][1,3]thiazolo[5,4-d]pyrimidin-7-amine] | > 2.22 | – |
| FC(F)(F)c1ccc(Nc2ncnc3sc(Cc4ccc(Cl)cc4Cl)nc23)cn1 [Example 29, 2-(2,4-Dichlorobenzyl)-N-[6-(trifluoromethyl)pyridin-3-yl][1,3]thiazolo[5,4-d]pyrimidin-7-amine] | 0.6 | – |
| FC(F)(F)c1ccc(Nc2ncnc3sc(Cc4ccccc4C(F)(F)F)nc23)cc1 [Example 30, 2-[2-(Trifluoromethyl)benzyl]-N-[4-(trifluoromethyl)phenyl][1,3]thiazolo[5,4-d]pyrimidin-7-amine] | 0.004 | – |
| FC(F)(F)c1ccc(Nc2ncnc3sc(Cc4ccccc4C(F)(F)F)nc23)cn1 [Example 31, 2-[2-(Trifluoromethyl)benzyl]-N-[6-(trifluoromethyl)pyridin-3-yl][1,3]thiazolo[5,4-d]pyrimidin-7-amine] | 0.013 | – |
| CSc1ccc(Nc2ncnc3sc(Cc4c(Cl)cccc4Cl)nc23)cn1 [Example 38, 2-(2,6-Dichlorobenzyl)-N-[6-(methylsulfanyl)pyridin-3-yl][1,3]thiazolo[5,4-d]pyrimidin-7-amine] | 0.099 | – |
| CC(CO)Nc1nc(Nc2ccc(C(F)(F)F)cc2)c2nc(Cc3c(Cl)cccc3Cl)sc2n1 (stereo not drawn) [Example 70, 2-[2-(2,6-Dichloro-benzyl)-7-(4-trifluoromethyl-phenylamino)-thiazolo[5,4-d]pyrimidin-5-ylamino]-propan-1-ol] | 1.02 | – |
| COC[C@@H]1CCCN1c1nc(Nc2ccc(C(F)(F)F)cc2)c2nc(Cc3c(Cl)cccc3Cl)sc2n1 [Example 71, (S)-[2-(2,6-Dichloro-benzyl)-5-(2-methoxymethyl-pyrrolidin-1-yl)-thiazolo[5,4-d]pyrimidin-7-yl]-(4-trifluoromethyl-phenyl)-amine] | 2.45 | – |
| CC(C)Nc1nc(Nc2ccc(C(F)(F)F)cc2)c2nc(Cc3c(Cl)cccc3Cl)sc2n1 [Example 72, 2-(2,6-Dichloro-benzyl)-N^5-isopropyl-N^7-(4-trifluoromethyl-phenyl)-thiazolo[5,4-d]pyrimidine-5,7-diamine] | 0.072 | – |
| FC(F)(F)c1ccc(Nc2nc(N3CCC3)nc3sc(Cc4c(Cl)cccc4Cl)nc23)cc1 [Example 73, [5-Azetidin-1-yl-2-(2,6-dichloro-benzyl)-thiazolo[5,4-d]pyrimidin-7-yl]-(4-trifluoromethyl-phenyl)-amine] | 0.063 | – |
| FC(F)(F)c1ccc(Nc2nc(N3CCNCC3)nc3sc(Cc4c(Cl)cccc4Cl)nc23)cc1 [Example 74, [2-(2,6-Dichloro-benzyl)-5-piperazin-1-yl-thiazolo[5,4-d]pyrimidin-7-yl]-(4-trifluoromethyl-phenyl)-amine trifluoroacetic acid salt] | > 6.67 | – |
| CC(C)N1CCN(c2nc(Nc3ccc(C(F)(F)F)cc3)c3nc(Cc4c(Cl)cccc4Cl)sc3n2)CC1 [Example 75, [2-(2,6-Dichloro-benzyl)-5-(4-isopropyl-piperazin-1-yl)-thiazolo[5,4-d]pyrimidin-7-yl]-(4-trifluoromethyl-phenyl)-amine trifluoroacetic acid salt] | 0.132 | – |
| FC(F)(F)c1ccc(Nc2nc(N3CCCCC3)nc3sc(Cc4c(Cl)cccc4Cl)nc23)cc1 [Example 81, [2-(2,6-Dichloro-benzyl)-5-piperidin-1-yl-thiazolo[5,4-d]pyrimidin-7-yl]-(4-trifluoromethyl-phenyl)-amine] | 0.014 | – |
| FC(F)(F)c1ccc(Nc2nc(NCCN3CCCC3)nc3sc(Cc4c(Cl)cccc4Cl)nc23)cc1 [Example 82, 2-(2,6-Dichloro-benzyl)-N^5-(2-pyrrolidin-1-yl-ethyl)-N^7-(4-trifluoromethyl-phenyl)-thiazolo[5,4-d]pyrimidine-5,7-diamine trifluoroacetic acid salt] | 0.959 | – |
| FC(F)(F)c1nnc(Nc2ncnc3sc(Cc4c(Cl)cccc4Cl)nc23)s1 [Example 98, 2-(2,6-Dichlorobenzyl)-N-[5-(trifluoromethyl)-1,3,4-thiadiazol-2-yl][1,3]thiazolo[5,4-d]pyrimidin-7-amine] | 1.05 | – |
| CC(C)(C)c1nnc(Nc2ncnc3sc(Cc4c(Cl)cccc4Cl)nc23)s1 [Example 99, N-(5-tert-Butyl-1,3,4-thiadiazol-2-yl)-2-(2,6-dichlorobenzyl)[1,3]thiazolo[5,4-d]pyrimidin-7-amine] | 0.195 | – |
| CC(C)COc1nc(Nc2ccc(C(F)(F)F)cc2)c2nc(Cc3c(Cl)cccc3Cl)sc2n1 [Example 103, [2-(2,6-Dichloro-benzyl)-5-isobutoxy-thiazolo[5,4-d]pyrimidin-7-yl]-(4-trifluoromethyl-phenyl)-amine] | 0.016 | – |
